The target of one data set is T1, glycine receptors (Rattus norvegicus, UniProt P07727).
T1 construct: from tissue; host or cells: rat spinal cord / brainstem synaptic membranes (inferred from the cited method)
The data set can be described thus: binding tests, affinity to glycine receptors (% displacement). The source says:
The compounds of the invention have shown in binding tests a higher affinity to glycine receptors (Table I) than a structurally similar compound, i.e. thiocolchicoside.
The interaction of the compositions of the invention with their receptors has been evaluated according to the procedure by A. B. Young and S. H. Snyder reported in Proc. Natl. Acad. Sci U.S.A. 71, 4002, 1974.

Data set [1] has as its system polysynaptic reflexes induced by strychnine. The data set can be described thus: inhibition of the polysynaptic reflexes induced by strychnine in rabbits. In kind it is in vivo, rabbit. The conditions noted are these: for reduction of polysynaptic reflexes / removal of the potentiation of strychnine-induced reflexes: rabbits, 1 mg/kg intramuscularly. From the text:
The inhibition of the polysynaptic reflexes induced by strychnine in rabbits has been studied for the in vivo tests.

The nature of data set [2]: acute toxicity (DL50) in the mouse. Conditions: in vivo, iv. The procedure:
The DL50 of the compounds I-III is, in fact, higher than 30 mg/kg i.v. in the mouse, the DL50 of thiocolchicoside being 7.5 mg/kg.

Here are results for four compounds from US5973204A (priority 1997, dated 1999).

Where only a bound is given, the exact number is not on record here.

T1 sequence (P07727 29-457): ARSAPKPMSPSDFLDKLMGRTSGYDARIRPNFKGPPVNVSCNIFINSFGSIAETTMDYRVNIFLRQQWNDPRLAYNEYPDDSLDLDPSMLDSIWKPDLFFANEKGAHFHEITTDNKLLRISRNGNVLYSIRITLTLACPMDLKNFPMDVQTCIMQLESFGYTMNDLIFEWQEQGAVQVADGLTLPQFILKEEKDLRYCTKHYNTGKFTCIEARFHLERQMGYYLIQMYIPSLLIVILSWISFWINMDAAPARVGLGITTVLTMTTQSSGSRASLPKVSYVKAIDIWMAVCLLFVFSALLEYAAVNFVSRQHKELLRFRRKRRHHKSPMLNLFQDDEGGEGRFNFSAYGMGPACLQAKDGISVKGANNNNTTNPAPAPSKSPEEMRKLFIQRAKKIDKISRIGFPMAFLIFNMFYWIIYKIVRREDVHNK
T1 sequence (P20781 23-496 partner): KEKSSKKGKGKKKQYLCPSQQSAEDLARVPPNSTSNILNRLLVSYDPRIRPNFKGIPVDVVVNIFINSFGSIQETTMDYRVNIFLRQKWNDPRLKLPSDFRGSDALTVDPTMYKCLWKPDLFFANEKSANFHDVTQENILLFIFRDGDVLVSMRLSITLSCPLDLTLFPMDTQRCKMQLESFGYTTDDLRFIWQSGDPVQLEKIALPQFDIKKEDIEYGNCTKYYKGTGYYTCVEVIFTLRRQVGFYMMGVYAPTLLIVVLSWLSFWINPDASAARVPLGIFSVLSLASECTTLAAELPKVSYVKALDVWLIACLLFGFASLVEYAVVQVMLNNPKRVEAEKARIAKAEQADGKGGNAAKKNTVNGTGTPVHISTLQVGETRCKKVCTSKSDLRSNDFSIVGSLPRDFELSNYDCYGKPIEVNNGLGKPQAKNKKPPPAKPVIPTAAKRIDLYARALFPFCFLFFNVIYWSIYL

`COc1c(OCC(O)CN)cc2c(c1OC)-c1ccc(SC)c(=O)cc1[C@@H](NC(C)=O)CC2` (some centres unmarked) [Compound III, 3-demethyl-3-(3-amino-2-hydroxypropyl)thiocolchicine]: at glycine receptors, the inhibition at 0.1 µM was 50% and the inhibition at 1 µM is 75%. Moreover, in data set [1], the “reduction of polysynaptic reflexes” value came to 65% and the “removal of the potentiation of strychnine-induced reflexes” value (“removal” for short) was “removing completely”.

Turning to `COc1c(O[C@@H]2O[C@H](CO)[C@@H](O)[C@H](O)[C@H]2O)cc2c(c1OC)-c1ccc(SC)c(=O)cc1[C@@H](NC(C)=O)CC2` [thiocolchicoside, 3-demethyl-thiocolchicine glucoside, reference compound], at glycine receptors, the inhibition at 0.1 µM turned out to be 20% and at 1 µM the inhibition was 70%. The compound also showed an inhibition at 0.5 µM at glycine receptors (0.5 μM) of 45%. Also, the minimal effective dose at 1 mg/kg in data set [1] (Oryctolagus cuniculus, read-out: minimum dose to obtain comparable effects) was not below 5 mg/kg. In addition, the LD50 in data set [2] stood at 7.5 mg/kg.

In the case of `COc1c(OCC(O)CO)cc2c(c1OC)-c1ccc(SC)c(=O)cc1[C@@H](NC(C)=O)CC2` (some centres unmarked) [Compound II, 3-demethyl-3-(2,3-dihydroxyrpropyl)thiocolchicine], on glycine receptors, at 0.1 µM the inhibition was 35% and the inhibition at 1 µM was 65%. In data set [1], the “reduction of polysynaptic reflexes” value worked out at 60% and the “removal” value is “removing completely”.

On glycine receptors, `COc1c(OCC2CO2)cc2c(c1OC)-c1ccc(SC)c(=O)cc1[C@@H](NC(C)=O)CC2` (some centres unmarked) [Compound I, 3-demethyl-3-glycidylthiocolchicine] gave an inhibition at 0.1 µM of 40% and an inhibition at 1 µM of 85%. In data set [1], the “reduction of polysynaptic reflexes” value amounted to 50% and the “removal” value is “removing completely”.

By inhibition is commonly meant the change of the read-out against control, counted positive when it falls. Low readings indicate a weak effect, high ones a strong effect. Broadly, the LD50 is the dose expected to kill half of the subjects tested. A lower LD50 goes with greater toxicity.
